Test results reported in patent US4914197A, “Novel phosphoric diesters” (Senju Pharmaceutical Co., Ltd., priority 1986, dated 1990).
“And” between values parts separate entries of the source, which are not always exact repeats. Identical values can stand only once.

Columns and labels:
rabbits eye = assay: Topical antiinflammatory effect, anterior chamber paracentesis inflammation model of the rabbits eye; assay type: in vivo, female white rabbits; settings: 0.1% ophthalmic solution; for % Inhibition: inhibition of increase in protein of secondary aqueous humor vs control; for Increase in protein: secondary minus primary aqueous humor (1.5 hours apart), 10 μl at 2, 1 and 0.5 hour before paracentesis, control 25.5
Procedure: The antiinflammatory effect of the compound according to the present invention was investigated in the anterior chamber paracentesis inflammation model of the rabbits eye.
Method: Using female white rabbits, a 0.1% ophthalmic solution of L-ascorbyl tocopheryl phosphate sodium and, as a control, physiological saline were instilled into the bilateral eyes of rabbits in volumes of 10 μl each at 2, 1 and 0.5 hour before peracentesis and using a 27-gauge needle about 200 μl of anterior chamber aqueous humor was collected from each eye (primary aqueous humor). Then, after an interval of 1.5 hours, the aqueous humor was collected again in the same manner (secondary aqueous humor). The protein content of each aqueous sample was determined by the method of Lowry and the increases in the amount of protein (protein content of secondary aqueous humor-protein content of primary aqueous humor) in the respective groups were compared to evaluate the antiinflammatory effect of each test substance.

[1] = system: back skin of Hartly guinea pigs; assay: Inhibitory effect on ultraviolet-induced erythema; assay type: in vivo; set-up: key to Degree of erythema, After 1 hour, Right / Degree of erythema, After 1 hour, Left / Degree of erythema, After 2 hours, Right / Degree of erythema, After 2 hours, Left: 0: No erythema; 1: Slight erythema; 2: Erythema without a distinct margin; 3: Erythema with a distinct margin
Procedure: Method: The back hairs of Hartly guinea pigs were clipped with an electric clipper and shaved with an electric razor. Then, a cloth with two holes 11 mm in diameter and 4 cm apart was appliedto the back for positioning and a 1 (w/v) % aqueous solution of δ-EPC (adjusted to pH 6.0) and, as control, water were applied 3 times in 100 μl portions each at 1-hour intervals around the sites of said holes over an area 4 cm in diameter. One hour after the final application, said cloth with small holes was applied again and the exposed skin areas was irradiated with ultraviolet rays at 1700 luxes for 360 seconds. Then, after 1 and 2 hours, respectively, the back was grossly examined for erythema. […]
Erythema without a distinct margin
Erythema with a distinct margin

[2] = 1 (w/v) % aqueous solution pH 6.0, 3 x 100 μl, one animal per line, control 2, 2, 2, 2
[3] = 1 (w/v) % aqueous solution pH 6.0, 3 x 100 μl, one animal per line, control 2, 3, 2, 2

SMILES	% Inhibition (rabbits eye) [%]	Increase in protein (rabbits eye)	Degree of erythema, After 1 hour, Left [1, 2]	Degree of erythema, After 2 hours, Left [1, 2]	Degree of erythema, After 1 hour, Right [1, 3]	Degree of erythema, After 2 hours, Right [1, 3]	antiinflammatory effect compared with the control group ([1]; UV-induced erythema, guinea pigs)
Cc1cc(OP(=O)(O)OC2=C(O)[C@@H]([C@@H](O)CO)OC2=O)c(C)c2c1OC(C)(CCCC(C)CCCC(C)CCCC(C)C)CC2 (mixture of isomers) [β-EPC, L-Ascorbyl DL-β-tocopheryl phosphate sodium]	37.3	16.0	–	–	–	–	–
Cc1c(OP(=O)(O)OC2=C(O)[C@@H]([C@@H](O)CO)OC2=O)cc2c(c1C)OC(C)(CCCC(C)CCCC(C)CCCC(C)C)CC2 (mixture of isomers) [γ-EPC, L-Ascorbyl DL-γ-tocopheryl phosphate sodium]	36.5	16.2	–	–	–	–	–
C[C@@H]1C[C@H]2[C@@H]3CCC4=CC(=O)C=C[C@]4(C)[C@@]3(F)[C@@H](O)C[C@]2(C)[C@@]1(O)C(=O)CO [DEX, Dexamethasone, reference compound]	18.4	20.8	–	–	–	–	–
Cc1cc(OP(=O)(O)OC2=C(O)[C@@H]([C@@H](O)CO)OC2=O)cc2c1O[C@](C)(CCC[C@H](C)CCC[C@H](C)CCCC(C)C)CC2 [δ-EPC, L-Ascorbyl D-δ-tocopheryl phosphate sodium]	40.0	15.3	0 and 1	0 and 1	1	1	significant antiinflammatory effect
